The text below walks through data of paper PMC6412891, “Synthesis and Biological Evaluation of Novel Thiazolyl-Coumarin Derivatives as Potent Histone Deacetylase Inhibitors with Antifibrotic Activity” (Molecules, 2019).

Series [1] is described as follows: Cytotoxicity assay (Alamar Blue) in cardiac fibroblasts. As to conditions: Sprague-Dawley, rat, primary neonatal rat cardiac fibroblasts (CFs), CFs treated for 48 h. The class given is cell-based, rat. How it is done: CFs were treated for 48 h with all the new CTz derivatives in a broad concentration range (100 μM^−1 mM), and their cytotoxicity was then evaluated. In Table 3 cytotoxic concentration 50 (CC50) values for each of the synthesized compounds are shown. […] When comparing the different ZBG the series 5 is the least cytotoxic for CFs, while series 8 was the most cytotoxic.
(§1) Sprague Dawley rats were obtained from the Animal Breeding Facility of the School of Chemical and Pharmaceutical Sciences at the University of Chile. All studies followed the Guide for the Care and Use of Laboratory Animals published by the US National Institutes of Health (NIH Publication 8th, 2011), and experimental protocols were approved by the University of Chile Institutional Ethics Review Committee. CF were isolated from of 2 or 3–day–old Sprague-Dawley rats and cultured as described previously. Briefly, the neonatal rats were decapitated and their hearts were extracted under aseptic environment. Atria were removed and ventricles were cut into small pieces (~1–2 mm) for posterior colagenase II digestion. The digestion yield was separated by 10 min centrifugation at 89×g. The pellet was resuspended in 10 mL of Dulbecco’s Modified Eagle’s Medium/Nutrient F-12 (DMEM-F12) supplemented with 10% FBS and antibiotics (100 μg/mL streptomycin and 100 units/mL penicillin) and cultured in a humid atmosphere of 5% CO2 and 95% O2 at 37°C until confluence (5 days). The purity of the CFs population was assessed through the expression of several markers. CFs had positive staining against vimentin (Santa Cruz Biotechnology), while being negative against sarcomeric actin and desmin (Sigma-Aldrich). Experiments were performed on cells at passage 1. Cells were cultured in 35-mm well plates and serum starved for 24 h prior to stimulation.
(§2) To evaluate cytotoxicity, CFs were seeded in 12 microwell plates at a ratio of 2 × 10^4 cell/cm^2, cultured in DMEM–F12 medium + 10% FBS, which was subsequently replaced by DMEM–F12. After 24 h of serum starvation derivatives were applied at proper times and concentrations in accordance to experimental procedures. Cell viability assays were carried out using Alamar Blue®, a nontoxic, cell permeable non fluorescent compound that is blue in color. Viable cells reduce resazurin to resorufin, which produces very bright red fluorescence which is used as a quantitative cell viability measure. 10 μL of 0.2 mg/mL Alamar Blue® was added into each well followed by incubation for 24 h. The fluorescence of Alamar Blue® was read using microplate reader at 570 excitation and emission to 595 nm. Cell survival was expressed as percentage over the untreated cells. To evaluate CFs proliferation assay, cells were seeded as mentioned before, and after serum starvation, they were stimulated by 10% fetal bovine serum (FBS), in presence/absence of CTz derivatives for 24 h, at concentrations according to experiment. Cell proliferation was quantified by Alamar Blue®, according to protocol mentioned before. Cell proliferation was expressed as percentage over the control FBS treated cells.
A general note: Resazurin is reduced to fluorescent resorufin, in cell work by metabolically active cells.

The subject of series [2] is neonatal rat cardiac fibroblasts (CFs). Nature of the series: FBS-induced cardiac fibroblast proliferation assay (Alamar Blue). The class given is cell-based. The note with it: 10% FBS-induced CF proliferation, 48 h, read-out: Inhibition percentage of cell proliferation. The procedure:
CFs were treated for 48 h with 10% fetal bovine serum (FBS), to induce CFs proliferation in presence/absence of each new CTz derivatives in a concentration range of 1–10 μM. In Table 4, the inhibition percentage of cell proliferation for each concentration of the synthesized compounds are shown. All derivatives inhibited CFs proliferation induce by serum.
as §1, with “Cells were cultured in 35-mm well plates and serum starved for 24 h prior to stimulation.” left out
as §2, with “10 μL of 0.2 mg/mL Alamar Blue® was added into each well followed by incubation for 24 h.” left out, “To evaluate CFs proliferation assay, cells were seeded as mentioned before, and after serum starvation, they were stimulated by 10% fetal bovine serum (FBS), in presence/absence of CTz derivatives for 24 h, at concentrations according to experiment.” left out

Broadly, the CC50 is the concentration giving 50% cytotoxicity. For the molecule `O=C(Nc1nc(-c2cc3ccccc3oc2=O)cs1)c1ccc(O)c(O)c1` [Compound 6a], it took 140 ± 11.7 µM to reach half-maximal cytotoxicity in series [1] (CC50 at 48 h). Further, in series [2], the inhibition at 1 µM came out at 3 ± 3.9%, the inhibition at 5 µM was 35 ± 1.9% and the inhibition at 10 µM was 60.6 ± 1.9%.
The corresponding values for `O=C(O)CCCCC(=O)Nc1nc(-c2cc3ccccc3oc2=O)cs1` [Compound 7a] are 111 ± 4.4 µM, 0.5 ± 0.1%, 26.8 ± 5.9% and 45 ± 5.1%.
The like results for `O=C(CCCCC1CCSS1)Nc1nc(-c2cc3ccccc3oc2=O)cs1` (stereo not shown) [Compound 5a, 5-[1,2]-Dithiolan-3-yl-N-[4-(2-oxo-2H-chromen-3-yl)-thiazol-2-yl]-pentanamide] were, in that order, 201 ± 20.3 µM, 57.3 ± 6.7%, 70.7 ± 7.1% and 92.8 ± 6.4%.
The corresponding values for `O=C(CCCCC(=O)Nc1nc(-c2cc3ccccc3oc2=O)cs1)NO` [Compound 8a, 5-[4-(2-Oxo-2H-chromen-3-yl)-thiazol-2-yl-carbamoyl]-N-hydroxypentanamide] are 90.5 ± 5.1 µM, 59.4 ± 6.1%, 79.9 ± 9.7% and 94.4 ± 3.8%.
